Experiment [1] has as its target Human KDR (residues 790-1356) (Homo sapiens (Human), UniProt P35968). Nature of the experiment: Human KDR kinase assay, HTRF KinEase (Example B-2). It is filed as biochemical. As to conditions: protocol of Example B-2 (other compounds). An outline of the steps:
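Ten compound concentrations (3% DMSO final) were pre-plated, then KDR (790-1356) with biotinylated peptide in Mg/Mn/DTT buffer was added; ATP at Km (4.0 μM) started a 40 min room-temperature reaction. Detection used Eu-TK antibody and SA-XL665 in EDTA buffer; activity normalized to DMSO and reference inhibitor, IC50 by logistic fit.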
Background: Time-resolved FRET reads energy transfer from a long-lived donor to a nearby acceptor.

Experiment [2] deals with Met (phospho-Met, HGF-stimulated PC-3 prostate cancer cells) (Homo sapiens (Human), UniProt P08581). Nature of the experiment: Met autophosphorylation ELISA in PC-3 cells (Example F). It is filed as cell-based. As to conditions: cellular activity; Met autophosphorylation ELISA in PC-3 cells; read-out: c-Met IC50. An outline of the steps: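 PC-3 cells, serum-starved 3 h, were treated with compounds (8-point dose curve, 0.3% DMSO final) for 1 h, then stimulated with 100 ng/mL recombinant human HGF for 10 min. Lysate phospho-Met (panTyr) was quantified by sandwich ELISA; IC50 from 4-parameter logistic fit.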
Background: In an ELISA, binding on a coated surface is turned into a signal by an enzyme label.

Experiment [3] deals with Human MER (residues 528-999) (Homo sapiens (Human), UniProt Q12866). Nature of the experiment: Human Mer kinase assay, HTRF KinEase (Example C-2). It is filed as biochemical. As to conditions: protocol of Example C-2 (other compounds). The gist of the method: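 HTRF KinEase TK assay with MER 528-999 (1 ng/well) in enzymatic buffer plus 5 mM MgCl2 and 1 mM DTT, biotinylated peptide substrate and ATP at Km (40 μM), 3% DMSO final, 60 min at room temperature. Stopped with EDTA detection mix (SA-XL665, TK antibody-Eu3+), read at 665/620 nm after 60 min; IC50 from 10-point 4-parameter fit, normalized to DMSO and 1 μM reference.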

Experiment [4] concerns the target KDR (phospho-KDR, VEGF165-stimulated HUVEC cells) (Homo sapiens (Human), UniProt P35968). Nature of the experiment: KDR autophosphorylation ELISA in HUVEC cells (Example G). It is filed as cell-based. As to conditions: cellular activity; KDR autophosphorylation ELISA in HUVEC cells. An outline of the steps:
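First, endothelial cells were cultured a day, then kept without serum for another day. Next came 1 h with serially diluted compound, a brief 5 min VEGF165 stimulus (100 ng/mL), rapid lysis, and ELISA detection of receptor phosphorylation relative to stimulated and non-stimulated controls.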

Counter-ions that a name gives are not always drawn. Bounds are passed on as bounds.

Sequence of KDR (phospho-KDR, VEGF165-stimulated HUVEC cells) (P35968 20-1356): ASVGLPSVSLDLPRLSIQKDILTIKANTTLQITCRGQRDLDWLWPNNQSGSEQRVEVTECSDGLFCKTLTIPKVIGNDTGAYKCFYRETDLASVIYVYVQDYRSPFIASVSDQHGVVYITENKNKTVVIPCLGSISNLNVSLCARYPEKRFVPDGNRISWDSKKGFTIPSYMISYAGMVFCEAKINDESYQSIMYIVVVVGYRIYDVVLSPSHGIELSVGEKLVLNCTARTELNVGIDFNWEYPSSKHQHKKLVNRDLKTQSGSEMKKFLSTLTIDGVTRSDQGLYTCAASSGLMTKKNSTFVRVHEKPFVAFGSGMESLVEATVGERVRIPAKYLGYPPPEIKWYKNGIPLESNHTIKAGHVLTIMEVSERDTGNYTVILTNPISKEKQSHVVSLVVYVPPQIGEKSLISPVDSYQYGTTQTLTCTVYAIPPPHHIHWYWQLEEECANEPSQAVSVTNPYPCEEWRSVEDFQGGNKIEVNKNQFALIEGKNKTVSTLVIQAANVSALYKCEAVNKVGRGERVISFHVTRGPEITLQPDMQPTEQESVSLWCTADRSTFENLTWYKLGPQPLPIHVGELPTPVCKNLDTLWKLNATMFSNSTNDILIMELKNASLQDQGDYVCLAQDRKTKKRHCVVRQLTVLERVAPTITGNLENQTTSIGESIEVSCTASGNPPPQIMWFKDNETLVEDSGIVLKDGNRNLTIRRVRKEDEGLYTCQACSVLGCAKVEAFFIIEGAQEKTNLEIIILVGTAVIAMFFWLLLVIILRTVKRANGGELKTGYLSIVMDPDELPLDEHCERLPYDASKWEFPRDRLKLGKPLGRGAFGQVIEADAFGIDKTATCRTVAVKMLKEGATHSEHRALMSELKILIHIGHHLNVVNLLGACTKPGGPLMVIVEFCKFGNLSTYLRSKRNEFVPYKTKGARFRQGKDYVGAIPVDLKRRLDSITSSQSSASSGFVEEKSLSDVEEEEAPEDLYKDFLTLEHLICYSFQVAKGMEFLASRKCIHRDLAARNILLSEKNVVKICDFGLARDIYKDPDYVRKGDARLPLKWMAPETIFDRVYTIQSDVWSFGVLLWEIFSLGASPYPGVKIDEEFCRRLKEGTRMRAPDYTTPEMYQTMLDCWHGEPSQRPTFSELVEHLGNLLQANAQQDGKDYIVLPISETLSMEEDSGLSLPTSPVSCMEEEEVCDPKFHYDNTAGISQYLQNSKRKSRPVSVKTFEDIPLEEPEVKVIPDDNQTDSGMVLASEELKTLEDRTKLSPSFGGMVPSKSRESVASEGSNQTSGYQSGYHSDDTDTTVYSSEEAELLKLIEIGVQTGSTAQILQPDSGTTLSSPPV
Sequence of Human MER (residues 528-999) (Q12866 528-999): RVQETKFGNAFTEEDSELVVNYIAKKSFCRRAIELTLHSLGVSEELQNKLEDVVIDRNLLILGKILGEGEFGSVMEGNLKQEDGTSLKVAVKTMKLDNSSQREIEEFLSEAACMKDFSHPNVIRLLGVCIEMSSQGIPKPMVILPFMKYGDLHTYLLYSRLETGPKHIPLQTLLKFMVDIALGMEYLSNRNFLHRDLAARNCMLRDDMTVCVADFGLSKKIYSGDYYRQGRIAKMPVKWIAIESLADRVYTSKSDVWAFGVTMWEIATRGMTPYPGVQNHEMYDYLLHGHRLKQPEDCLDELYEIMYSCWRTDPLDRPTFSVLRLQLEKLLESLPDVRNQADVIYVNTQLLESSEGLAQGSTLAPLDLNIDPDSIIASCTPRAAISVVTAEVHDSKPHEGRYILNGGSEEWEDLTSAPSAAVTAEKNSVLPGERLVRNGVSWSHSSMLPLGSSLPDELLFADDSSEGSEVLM
Sequence of Human KDR (residues 790-1356) (P35968 790-1356): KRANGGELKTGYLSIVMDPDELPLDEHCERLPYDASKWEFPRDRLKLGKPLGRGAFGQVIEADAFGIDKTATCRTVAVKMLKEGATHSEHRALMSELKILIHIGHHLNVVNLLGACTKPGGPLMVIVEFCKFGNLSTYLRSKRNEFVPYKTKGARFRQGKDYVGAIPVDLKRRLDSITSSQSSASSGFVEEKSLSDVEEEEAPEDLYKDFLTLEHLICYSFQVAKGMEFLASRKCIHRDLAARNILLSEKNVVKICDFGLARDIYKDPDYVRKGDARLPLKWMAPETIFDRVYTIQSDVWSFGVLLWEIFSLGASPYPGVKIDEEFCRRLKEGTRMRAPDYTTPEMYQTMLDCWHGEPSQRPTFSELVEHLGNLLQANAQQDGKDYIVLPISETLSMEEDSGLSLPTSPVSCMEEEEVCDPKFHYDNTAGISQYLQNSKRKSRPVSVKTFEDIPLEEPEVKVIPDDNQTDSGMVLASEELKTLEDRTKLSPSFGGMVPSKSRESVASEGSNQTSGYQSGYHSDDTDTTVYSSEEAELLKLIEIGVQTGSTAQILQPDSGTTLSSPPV
Sequence of Met (phospho-Met, HGF-stimulated PC-3 prostate cancer cells) (P08581 25-1390): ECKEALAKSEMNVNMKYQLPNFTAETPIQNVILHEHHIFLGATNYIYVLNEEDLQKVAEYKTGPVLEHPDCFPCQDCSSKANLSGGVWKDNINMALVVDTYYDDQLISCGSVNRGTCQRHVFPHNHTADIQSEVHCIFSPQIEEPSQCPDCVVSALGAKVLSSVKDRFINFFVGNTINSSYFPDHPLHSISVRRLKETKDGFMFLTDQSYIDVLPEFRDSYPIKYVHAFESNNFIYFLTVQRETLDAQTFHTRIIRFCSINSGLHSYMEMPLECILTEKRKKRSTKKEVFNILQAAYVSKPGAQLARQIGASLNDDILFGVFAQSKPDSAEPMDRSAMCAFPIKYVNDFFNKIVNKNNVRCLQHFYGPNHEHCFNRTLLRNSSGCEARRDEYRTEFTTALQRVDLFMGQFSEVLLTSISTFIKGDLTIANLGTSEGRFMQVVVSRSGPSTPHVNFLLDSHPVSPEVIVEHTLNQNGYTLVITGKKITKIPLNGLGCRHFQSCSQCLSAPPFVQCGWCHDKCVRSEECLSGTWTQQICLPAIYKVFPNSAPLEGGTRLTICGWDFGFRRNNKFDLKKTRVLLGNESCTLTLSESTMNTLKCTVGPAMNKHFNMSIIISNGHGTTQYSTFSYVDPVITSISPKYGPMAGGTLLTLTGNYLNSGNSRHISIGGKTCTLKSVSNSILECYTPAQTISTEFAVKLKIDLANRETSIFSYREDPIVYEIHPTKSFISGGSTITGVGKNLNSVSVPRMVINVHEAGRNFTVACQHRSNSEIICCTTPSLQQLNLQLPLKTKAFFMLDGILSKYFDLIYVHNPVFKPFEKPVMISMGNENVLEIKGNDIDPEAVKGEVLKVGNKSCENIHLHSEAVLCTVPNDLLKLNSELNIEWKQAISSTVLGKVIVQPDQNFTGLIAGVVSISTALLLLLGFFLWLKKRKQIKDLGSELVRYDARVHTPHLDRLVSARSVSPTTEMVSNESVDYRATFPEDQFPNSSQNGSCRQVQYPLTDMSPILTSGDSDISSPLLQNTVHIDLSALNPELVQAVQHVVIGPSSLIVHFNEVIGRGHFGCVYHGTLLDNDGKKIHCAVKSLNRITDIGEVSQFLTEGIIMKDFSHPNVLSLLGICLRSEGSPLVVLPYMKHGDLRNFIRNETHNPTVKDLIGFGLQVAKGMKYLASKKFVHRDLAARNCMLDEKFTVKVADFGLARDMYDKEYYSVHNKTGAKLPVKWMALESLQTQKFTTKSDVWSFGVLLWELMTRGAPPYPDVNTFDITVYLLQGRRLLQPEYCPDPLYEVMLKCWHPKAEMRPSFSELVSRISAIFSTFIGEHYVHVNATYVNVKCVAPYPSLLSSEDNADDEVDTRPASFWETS

By IC50 is commonly meant the concentration that inhibits the measured activity by half. Take `CCc1nc(C)c(-c2ccc(F)cc2C)c(O)c1C(=O)Nc1ccc(Oc2ccnc3cc(OC)cnc23)cc1` [Compound 205, 2-Ethyl-5-(4-fluoro-2-methylphenyl)-4-hydroxy-N-[4-[(7-methoxy-1,5-naphthyridin-4-yl)oxy]phenyl]-6-methylpyridine-3-carboxamide]: the half-maximal inhibitory concentration (IC50) in experiment [1] is > 300 nM; in experiment [2] it was < 100 nM; in experiment [3], < 100 nM; in experiment [4] it was < 100 nM.

For the compound `COc1cnc2c(Oc3ccc(NC(=O)c4cn(C)c(CO)c(-c5ccc(F)cc5)c4=O)cc3)ccnc2c1` [Compound 223, 5-(4-Fluorophenyl)-6-(hydroxymethyl)-N-[4-[(7-methoxy-1,5-naphthyridin-4-yl)oxy]phenyl]-1-methyl-4-oxopyridine-3-carboxamide], the IC50 in experiment [1] was > 300 nM; in experiment [2], < 100 nM; in experiment [3], < 100 nM; in experiment [4], > 300 nM.

For `COc1cc2nccc(Oc3ccc(NC(=O)c4c(C)nc(C)c(-c5ccc(F)cc5C)c4O)cc3F)c2nc1OC` [Compound 177, N-[4-[(6,7-Dimethoxy-1,5-naphthyridin-4-yl)oxy]-3-fluorophenyl]-5-(4-fluoro-2-methylphenyl)-4-hydroxy-2,6-dimethylpyridine-3-carboxamide], the IC50 in experiment [1], in experiment [2], in experiment [3] and in experiment [4] was < 100 nM each time.

As to `COc1cnc2c(Oc3ccc(NC(=O)c4c(C)ncn(-c5ccc(F)cc5)c4=O)cc3F)ccnc2c1` [Compound 256, N-[3-Fluoro-4-[(7-methoxy-1,5-naphthyridin-4-yl)oxy]phenyl]-1-(4-fluorophenyl)-4-methyl-6-oxopyrimidine-5-carboxamide], the IC50 was 100 to 300 nM in experiment [1], 100 to 300 nM in experiment [2], < 100 nM in experiment [3] and > 300 nM in experiment [4].

As for `COc1cnc2c(Oc3ccc(NC(=O)c4nn(C)c(C)c(-c5ccc(F)cc5)c4=O)cc3)ccnc2c1` [Compound 251, 5-(4-Fluorophenyl)-N-[4-[(7-methoxy-1,5-naphthyridin-4-yl)oxy]phenyl]-1,6-dimethyl-4-oxopyridazine-3-carboxamide], the IC50 is > 300 nM in experiment [1], < 100 nM in experiment [2], < 100 nM in experiment [3] and > 300 nM in experiment [4].

In the case of `COCc1nc(C)c(-c2ccc(F)cc2)c(O)c1C(=O)Nc1ccc(Oc2ccnc3ccc(OC)nc23)c(F)c1` [Compound 189, N-[3-Fluoro-4-[(6-methoxy-1,5-naphthyridin-4-yl)oxy]phenyl]-5-(4-fluorophenyl)-4-hydroxy-2-(methoxymethyl)-6-methylpyridine-3-carboxamide], the half-maximal inhibitory concentration (IC50) in experiment [1] was 100 to 300 nM; in experiment [2], < 100 nM; in experiment [3], < 100 nM; in experiment [4], < 100 nM.

In the case of `COc1cc2nccc(Oc3ccc(NC(=O)c4cn(C)c(C)c(-c5ccc(F)cc5C)c4=O)cc3)c2nc1OC` [Compound 196, N-[4-[(6,7-Dimethoxy-1,5-naphthyridin-4-yl)oxy]phenyl]-5-(4-fluoro-2-methylphenyl)-1,6-dimethyl-4-oxopyridine-3-carboxamide], the IC50 in experiment [1] was 100 to 300 nM; in experiment [2], < 100 nM; in experiment [3], < 100 nM; in experiment [4], < 100 nM.

For `COc1cc2nccc(Oc3ccc(NC(=O)c4cn(C(C)C)c(C)c(-c5cccc(F)c5)c4=O)cc3F)c2nc1OC` [Compound 30, N-[4-[(6,7-Dimethoxy-1,5-naphthyridin-4-yl)oxy]-3-fluorophenyl]-5-(3-fluorophenyl)-6-methyl-4-oxo-1-propan-2-ylpyridine-3-carboxamide hydrochloride], the IC50 was < 100 nM in experiment [1], < 100 nM in experiment [2], < 100 nM in experiment [3] and > 300 nM in experiment [4].

On to `COc1ccc2nccc(Oc3ccc(NC(=O)c4c(C)nc(C)n(-c5ccc(F)cc5)c4=O)cc3F)c2n1` [Compound 233, N-[3-Fluoro-4-[(6-methoxy-1,5-naphthyridin-4-yl)oxy]phenyl]-1-(4-fluorophenyl)-2,4-dimethyl-6-oxopyrimidine-5-carboxamide], for which the IC50 in experiment [1] is < 100 nM; in experiment [2], 100 to 300 nM; in experiment [3] it was < 100 nM; in experiment [4], < 100 nM.

Turning to `COc1cc2nccc(Oc3ccc(NC(=O)c4c(C)ncc(-c5ccc(F)cc5)c4O)cc3F)c2nc1OC` [Compound 237, N-[4-[(6,7-Dimethoxy-1,5-naphthyridin-4-yl)oxy]-3-fluorophenyl]-5-(4-fluorophenyl)-4-hydroxy-2-methylpyridine-3-carboxamide], the IC50 in experiment [1], in experiment [2], in experiment [3] and in experiment [4] was < 100 nM each time.

In the case of `CCn1cc(-c2ccc(F)cc2)c(=O)c(C(=O)Nc2ccc(Oc3ccnc4cc(OC)cnc34)c(F)c2)c1C` [Compound 240, 1-Ethyl-N-[3-fluoro-4-[(7-methoxy-1,5-naphthyridin-4-yl)oxy]phenyl]-5-(4-fluorophenyl)-2-methyl-4-oxopyridine-3-carboxamide], the IC50 in experiment [1] was > 300 nM; in experiment [2], < 100 nM; in experiment [3], < 100 nM; in experiment [4] it was > 300 nM.

As to `COc1cnc2c(Oc3ccc(NC(=O)c4cn(CC(F)(F)F)c(C)c(-c5ccc(F)cc5)c4=O)cc3F)ccnc2c1` [Compound 261, N-[3-Fluoro-4-[(7-methoxy-1,5-naphthyridin-4-yl)oxy]phenyl]-5-(4-fluorophenyl)-6-methyl-4-oxo-1-(2,2,2-trifluoroethyl)pyridine-3-carboxamide], the IC50 was > 300 nM in experiment [1], < 100 nM in experiment [2], < 100 nM in experiment [3] and > 300 nM in experiment [4].

On to `CCc1nc(C)c(-c2ccc(F)cc2)c(O)c1C(=O)Nc1ccc(Oc2ccnc3cc(OC)c(OC)nc23)c(F)c1` [Compound 179, N-[4-[(6,7-Dimethoxy-1,5-naphthyridin-4-yl)oxy]-3-fluorophenyl]-2-ethyl-5-(4-fluorophenyl)-4-hydroxy-6-methylpyridine-3-carboxamide], for which the half-maximal inhibitory concentration (IC50) in experiment [1], in experiment [2], in experiment [3] and in experiment [4] was < 100 nM throughout.

As to `COc1ccc2nccc(Oc3ccc(NC(=O)c4n[nH]c(C)c(-c5ccc(F)cc5C)c4=O)cc3F)c2n1` [Compound 230, N-[3-Fluoro-4-[(6-methoxy-1,5-naphthyridin-4-yl)oxy]phenyl]-5-(4-fluoro-2-methylphenyl)-6-methyl-4-oxo-1H-pyridazine-3-carboxamide], the IC50 in experiment [1] was > 300 nM; in experiment [2], 100 to 300 nM; in experiment [3] it was < 100 nM; in experiment [4] it was 100 to 300 nM.

Take `COc1cnc2c(Oc3ccc(NC(=O)c4c(C)ncc(-c5ccc(F)cc5)c4O)cc3)ccnc2c1` [Compound 236, 5-(4-Fluorophenyl)-4-hydroxy-N-[4-[(7-methoxy-1,5-naphthyridin-4-yl)oxy]phenyl]-2-methylpyridine-3-carboxamide]: the IC50 in experiment [1], in experiment [2], in experiment [3] and in experiment [4] was < 100 nM throughout.

For `COCCOc1nc2c(Oc3ccc(NC(=O)c4cn(C)c(C)c(-c5ccc(F)cc5C)c4=O)cc3F)ccnc2cc1OC` [Compound 200, N-[3-Fluoro-4-[[7-methoxy-6-(2-methoxyethoxy)-1,5-naphthyridin-4-yl]oxy]phenyl]-5-(4-fluoro-2-methylphenyl)-1,6-dimethyl-4-oxopyridine-3-carboxamide], the IC50 in experiment [1] is > 300 nM; in experiment [2], < 100 nM; in experiment [3], < 100 nM; in experiment [4], < 100 nM.

For `COc1cc2nccc(Oc3ccc(NC(=O)c4cn(C)c(C)c(-c5ccccc5)c4=O)cc3F)c2nc1OC` [Compound 36, N-[4-[(6,7-Dimethoxy-1,5-naphthyridin-4-yl)oxy]-3-fluorophenyl]-1,6-dimethyl-4-oxo-5-phenylpyridine-3-carboxamide hydrochloride], the 50% inhibitory concentration (IC50) in experiment [1] was < 100 nM; in experiment [2] it was < 100 nM; in experiment [3] it was < 100 nM; in experiment [4], 100 to 300 nM.

`COCCOc1nc2c(Oc3ccc(NC(=O)c4c(COC)nc(C)c(-c5ccc(F)cc5)c4O)cc3F)ccnc2cc1OC` [Compound 199, N-[3-Fluoro-4-[[7-methoxy-6-(2-methoxyethoxy)-1,5-naphthyridin-4-yl]oxy]phenyl]-5-(4-fluorophenyl)-4-hydroxy-2-(methoxymethyl)-6-methylpyridine-3-carboxamide]: the IC50 in experiment [1], in experiment [2], in experiment [3] and in experiment [4] was < 100 nM in each case.
